Reference: PubChem BioAssay (NCI)
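96-well plates; 48 h exposure; 5 concentrations. Endpoints by linear interpolation between flanking doses. Not reached: highest tested concentration assigned. At the TGI there is no net growth.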

What was measured:
Assay in all cases: NCI anticancer screen, dose series, 48 h
[1] = system: HOP-92 NSCLC
[2] = system: OVCAR-5 ovarian
[3] = system: K-562 leukemia
[4] = system: SK-MEL-5 melanoma
[5] = system: ACHN renal
[6] = system: SK-MEL-2 melanoma
[7] = system: HT29 colon
[8] = system: LOX IMVI melanoma
[9] = system: DMS 273 small cell lung
[10] = system: MOLT-4 leukemia
[11] = system: XF 498 CNS
[12] = system: COLO 205 colon
[13] = system: A549 NSCLC
[14] = system: DMS 114 small cell lung
[15] = system: NCI-H226 lung
[16] = system: HCT-15 colon
[17] = system: HCT-116 colon
[18] = system: RXF 393 renal
[19] = system: M19-MEL melanoma
[20] = system: SK-OV-3 ovarian
[21] = system: UACC-62 melanoma
[22] = system: SW-620 colon
[23] = system: KM12 colon
[24] = system: SN12C renal
[25] = system: CCRF-CEM leukemia
[26] = system: HCC-2998 colon
[27] = system: SR leukemia
[28] = system: EKVX NSCLC
[29] = system: RPMI-8226 leukemia
[30] = system: UO-31 renal
[31] = system: NCI-H522 lung
[32] = system: HL-60(TB) leukemia
[33] = system: SNB-78 CNS
[34] = system: 786-0 renal
[35] = system: M14 melanoma
[36] = system: KM20L2 colon
[37] = system: SF-268 CNS
[38] = system: UACC-257 melanoma
[39] = system: SF-539 CNS
[40] = system: HOP-62 NSCLC
[41] = system: NCI-H23 lung
[42] = system: SF-295 CNS
[43] = system: U251 CNS
[44] = system: SNB-75 CNS
[45] = system: A498 renal
[46] = system: SK-MEL-28 melanoma
[47] = system: OVCAR-3 ovarian
[48] = system: SNB-19 CNS
[49] = system: IGROV1 ovarian
[50] = system: LXFL 529 NSCLC
[51] = system: HOP-18 NSCLC
[52] = system: OVCAR-8 ovarian
[53] = system: TK-10 renal
[54] = system: MALME-3M melanoma
[55] = system: NCI-H460 lung
[56] = system: OVCAR-4 ovarian
[57] = system: DLD-1 colon
[58] = system: CAKI-1 renal

N#CC1(Cc2ccccc2Cl)c2ccccc2C=CN1C(=O)c1ccccc1 (stereo not drawn)
TGI [1]: > 100 µM
TGI [2]: > 100 µM
TGI [3]: > 100 µM
TGI [4]: > 100 µM
TGI [5]: > 100 µM
TGI [6]: > 100 µM
TGI [7]: > 100 µM
TGI [8]: > 100 µM
TGI [9]: > 100 µM
TGI [10]: > 100 µM
TGI [11]: > 100 µM
TGI [12]: > 100 µM
TGI [13]: > 100 µM
TGI [14]: > 100 µM
TGI [15]: > 100 µM
TGI [16]: > 100 µM
TGI [17]: > 100 µM
TGI [18]: > 100 µM
TGI [19]: > 100 µM
TGI [20]: > 100 µM
TGI [21]: > 100 µM
TGI [22]: > 100 µM
TGI [23]: > 100 µM
TGI [24]: > 100 µM
TGI [25]: > 100 µM
TGI [26]: > 100 µM
TGI [27]: > 100 µM
TGI [28]: > 100 µM
TGI [29]: > 100 µM
TGI [30]: > 100 µM
TGI [31]: > 100 µM
TGI [32]: > 100 µM
TGI [33]: > 100 µM
TGI [34]: > 100 µM
TGI [35]: > 100 µM
TGI [36]: > 100 µM
TGI [37]: > 100 µM
TGI [38]: > 100 µM
TGI [39]: > 100 µM
TGI [40]: > 100 µM
TGI [41]: > 100 µM
TGI [42]: > 100 µM
TGI [43]: > 100 µM
TGI [44]: > 100 µM
TGI [45]: > 100 µM
TGI [46]: > 100 µM
TGI [47]: > 100 µM
TGI [48]: > 100 µM
TGI [49]: > 100 µM
TGI [50]: > 100 µM
TGI [51]: > 100 µM
TGI [52]: > 100 µM
TGI [53]: > 100 µM
TGI [54]: > 100 µM

CCOc1ccccc1NC(=O)C(=O)C1C(=O)Nc2ccccc2S1=O (stereo not drawn)
TGI [3]: > 100 µM
TGI [6]: > 100 µM
TGI [9]: > 100 µM
TGI [10]: > 100 µM
TGI [13]: > 100 µM
TGI [14]: > 100 µM
TGI [16]: > 100 µM
TGI [17]: > 100 µM
TGI [18]: > 100 µM
TGI [55]: > 100 µM
TGI [20]: > 100 µM
TGI [25]: > 100 µM
TGI [26]: > 100 µM
TGI [29]: > 100 µM
TGI [30]: > 100 µM
TGI [31]: > 100 µM
TGI [32]: > 100 µM
TGI [33]: > 100 µM
TGI [34]: > 100 µM
TGI [35]: > 100 µM
TGI [37]: > 100 µM
TGI [43]: > 100 µM
TGI [46]: > 100 µM
TGI [47]: > 100 µM
TGI [50]: > 100 µM
TGI [51]: > 100 µM
TGI [54]: > 100 µM

c1cc(C2O[C@H]3CCCN3[C@@H]2c2ccncc2)ccn1 (stereo partly drawn)
TGI [2]: > 100 µM
TGI [3]: > 100 µM
TGI [4]: > 100 µM
TGI [5]: > 100 µM
TGI [6]: > 100 µM
TGI [7]: > 100 µM
TGI [8]: > 100 µM
TGI [9]: > 100 µM
TGI [10]: > 100 µM
TGI [11]: > 100 µM
TGI [12]: > 100 µM
TGI [13]: > 100 µM
TGI [14]: > 100 µM
TGI [15]: > 100 µM
TGI [16]: > 100 µM
TGI [17]: > 100 µM
TGI [18]: > 100 µM
TGI [55]: > 100 µM
TGI [19]: > 100 µM
TGI [20]: > 100 µM
TGI [21]: > 100 µM
TGI [22]: > 100 µM
TGI [23]: > 100 µM
TGI [24]: > 100 µM
TGI [25]: > 100 µM
TGI [56]: > 100 µM
TGI [28]: > 100 µM
TGI [29]: > 100 µM
TGI [30]: > 100 µM
TGI [31]: > 100 µM
TGI [33]: > 100 µM
TGI [34]: > 100 µM
TGI [35]: > 100 µM
TGI [36]: > 100 µM
TGI [37]: > 100 µM
TGI [57]: > 100 µM
TGI [38]: > 100 µM
TGI [39]: > 100 µM
TGI [40]: > 100 µM
TGI [58]: > 100 µM
TGI [41]: > 100 µM
TGI [42]: > 100 µM
TGI [43]: > 100 µM
TGI [44]: > 100 µM
TGI [45]: > 100 µM
TGI [46]: > 100 µM
TGI [47]: > 100 µM
TGI [48]: > 100 µM
TGI [49]: > 100 µM
TGI [50]: > 100 µM
TGI [52]: > 100 µM
TGI [53]: > 100 µM
TGI [54]: > 100 µM

CC(C)CCC[C@@H](C)C1CCC2[C@@H]3CC=C4C[C@@H](OC(=O)CCC(=O)NCC[N+](C)(C)CCCS(=O)(=O)[O-])CC[C@]4(C)C3CC[C@@]21C (stereo partly drawn)
TGI [3]: 37.6 µM
TGI [5]: 53.9 µM
TGI [6]: 34.9 µM
TGI [7]: 80.3 µM
TGI [8]: 33.1 µM
TGI [9]: 28.5 µM
TGI [10]: 39.7 µM
TGI [12]: 40.3 µM
TGI [13]: 37.8 µM
TGI [14]: 36.1 µM
TGI [15]: 50.5 µM
TGI [16]: 29.5 µM
TGI [17]: 63.1 µM
TGI [18]: 24.2 µM
TGI [55]: 30.9 µM
TGI [19]: 33.4 µM
TGI [20]: > 100 µM
TGI [21]: 50.3 µM
TGI [22]: 33.8 µM
TGI [23]: 37.9 µM
TGI [24]: 38.2 µM
TGI [25]: 42.6 µM
TGI [26]: 37.5 µM
TGI [56]: 34.5 µM
TGI [28]: 79.5 µM
TGI [29]: 45.9 µM
TGI [30]: > 100 µM
TGI [31]: 73 µM
TGI [32]: 36.6 µM
TGI [33]: 70.1 µM
TGI [34]: 67.9 µM
TGI [35]: 36 µM
TGI [36]: > 100 µM
TGI [37]: 39.7 µM
TGI [57]: 44.9 µM
TGI [38]: 48.8 µM
TGI [39]: 31.4 µM
TGI [40]: 33.9 µM
TGI [58]: > 100 µM
TGI [42]: 31.6 µM
TGI [43]: 33.9 µM
TGI [44]: 44.9 µM
TGI [46]: 32.9 µM
TGI [47]: 34.5 µM
TGI [48]: 44.7 µM
TGI [50]: 71.6 µM
TGI [51]: 97.2 µM
TGI [52]: 35 µM
TGI [54]: 43.7 µM
